In the oligonucleotide strings, read from the 5' end, every base follows the letter of its sugar. An asterisk marks phosphorothioate; unmarked linkages are phosphodiester. Other units and linkages are bracketed, terminal groups are in braces. A string of capitals states the bases alone. e = 2'-O-(2-methoxyethyl) (MOE); [5mC] = 5-methylcytosine; d = 2'-deoxy (DNA)

In this data set the test system is human Factor 7 mRNA. The data set is described as follows: Inhibition of human Factor 7 mRNA by 2-10-2 MOE shortmers in HepB3 cells, electroporation, 1,000 nM. It is filed as cell-based. The note with it: electroporation, 1,000 nM oligonucleotide, approximately 24 hours, relative to untreated control cells. The source says: Short antisense oligonucleotides (shortmers) were designed to target a Factor 7 nucleic acid. The shortmers in Table 17 were designed as 2-10-2 MOE gapmers. The gapmers are 14 nucleotides in length, wherein the central gap segment is comprised of 10 2′-deoxynucleotides and is flanked on both sides (in the 5′ and 3′ directions) by wings comprising 2 nucleotides each. Each nucleotide in the 5′ wing segment and each nucleotide in the 3′ wing segment has a 2′-MOE modification. The internucleoside linkages throughout each gapmer are phosphorothioate (P═S) linkages. All cytidine residues throughout each gapmer are 5-methylcytidines.
Shortmers were evaluated for their ability to reduce human Factor 7 mRNA in HepB3 cells and compared with one 5-10-5 chimeric oligonucleotide from Table 16, ISIS 407939. HepB3 cells at a density of 20,000 cells per well in a 96-well plate were transfected using electroporation with 1,000 nM of antisense oligonucleotide. After a treatment period of approximately 24 hours, RNA was isolated from the cells and Factor 7 mRNA levels were measured by real-time RT-PCR, as described herein. Factor 7 mRNA levels were adjusted according to total RNA content as measured by RIBOGREEN®. Results are presented in Table 17 as percent inhibition of Factor 7 mRNA, relative to untreated control cells. ISIS 407939 is the first oligonucleotide in […] to which the shortmers were compared, and is marked by an asterisk (*).
Take “435777 (antisense e[5mC]*eT*dG*dA*dG*dG*dA*dT*dG*d[5mC]*dA*dG*eG*e[5mC]) [compound 435777]”: the “% inhibition of human Factor 7 mRNA” value came to 53%.
Then “435847 (antisense eT*eG*dG*dT*dG*dT*dG*d[5mC]*dA*d[5mC]*dA*d[5mC]*eA*eT) [compound 435847]”, with 36%.
As for “435724 (antisense e[5mC]*eT*dG*dA*dG*dG*d[5mC]*d[5mC]*dA*dG*d[5mC]*dA*eG*eA) [compound 435724]”, the figure is 52%; as for “435651 (antisense eA*e[5mC]*dA*dG*dT*dT*d[5mC]*d[5mC]*dG*dG*d[5mC]*d[5mC]*e[5mC]*eT) [compound 435651]”, 71%; as for “435776 (antisense eG*eG*dG*dA*d[5mC]*dA*d[5mC]*dT*d[5mC]*dA*d[5mC]*dA*e[5mC]*eT) [compound 435776]”, 51%.
Then “435822 (antisense e[5mC]*e[5mC]*dA*dG*dG*dA*dG*d[5mC]*d[5mC]*dT*dT*dT*eA*e[5mC]) [compound 435822]”, with 37%; and “435678 (antisense eA*eG*dG*dT*d[5mC]*dG*dT*dG*d[5mC]*dT*d[5mC]*dG*e[5mC]*e[5mC]) [compound 435678]”, with 67%; and “435793 (antisense eT*eG*d[5mC]*dA*dG*dT*dA*dG*d[5mC]*dA*dG*dA*eT*eG) [compound 435793]”, with 27%.
“435644 (antisense eT*eG*dG*dT*d[5mC]*d[5mC]*dT*dT*dG*d[5mC]*dA*dG*eG*eA) [compound 435644]”: the “% inhibition of human Factor 7 mRNA” value worked out at 30%.
“435728 (antisense eA*e[5mC]*dA*d[5mC]*dA*dT*dG*dG*dA*dG*dT*d[5mC]*eA*eG) [compound 435728]”: the “% inhibition of human Factor 7 mRNA” value is 16%.
As for “435654 (antisense eG*e[5mC]*d[5mC]*dG*dT*dT*d[5mC]*dT*d[5mC]*dG*dT*dT*e[5mC]*eA) [compound 435654]”, the figure is 71%.
As for “435842 (antisense eA*eT*dT*dT*d[5mC]*d[5mC]*d[5mC]*dA*dT*dT*dG*dG*e[5mC]*eA) [compound 435842]”, the figure is 0%.
As for “435737 (antisense eG*eT*dG*d[5mC]*dA*dG*d[5mC]*d[5mC]*d[5mC]*dG*dG*d[5mC]*eA*e[5mC]) [compound 435737]”, the figure is 70%; as for “435504 (antisense eA*eT*dG*dT*dA*d[5mC]*dT*dG*dG*dG*dA*dG*eA*e[5mC]) [compound 435504]”, 8%; as for “435818 (antisense eG*eT*d[5mC]*dA*dT*d[5mC]*d[5mC]*dT*dT*dG*dT*d[5mC]*eT*eG) [compound 435818]”, 43%.
For the substance “435744 (antisense e[5mC]*eT*dA*d[5mC]*dA*dG*d[5mC]*d[5mC]*dT*d[5mC]*dA*dA*eA*e[5mC]) [compound 435744]”, the “% inhibition of human Factor 7 mRNA” value was found to be 19%.
As for “435768 (antisense eG*e[5mC]*d[5mC]*dT*dG*dG*dA*dT*dG*d[5mC]*dT*dG*eG*eT) [compound 435768]”, the figure is 75%.
As for “435758 (antisense e[5mC]*e[5mC]*d[5mC]*dT*dG*dA*dG*d[5mC]*dT*dG*dG*dG*e[5mC]*eA) [compound 435758]”, the figure is 4%; as for “435663 (antisense e[5mC]*e[5mC]*dA*d[5mC]*dA*dT*dG*dG*dA*dT*dA*dT*eT*e[5mC]) [compound 435663]”, 50%.
Then “435825 (antisense e[5mC]*eT*dG*dG*dT*dT*dT*dT*dG*dG*dA*dG*eG*eA) [compound 435825]”, with 0%; and “435784 (antisense e[5mC]*e[5mC]*dT*dA*dA*dG*dT*dG*dT*dG*d[5mC]*dT*eT*eT) [compound 435784]”, with 17%; and “435780 (antisense eG*eG*dA*dG*dG*dG*dA*d[5mC]*dG*dA*d[5mC]*d[5mC]*eT*eT) [compound 435780]”, with 28%.
As for “435788 (antisense e[5mC]*e[5mC]*dT*dG*dT*dG*dA*dG*dT*dG*dT*dG*eA*eG) [compound 435788]”, the “% inhibition of human Factor 7 mRNA” value is on record as 20%.
Then “435500 (antisense eA*e[5mC]*dT*dG*dG*dG*dA*dG*dA*d[5mC]*d[5mC]*d[5mC]*eT*eG) [compound 435500]”, with 49%; and “435740 (antisense eT*e[5mC]*dA*dT*dT*dT*d[5mC]*dA*dG*dT*dG*dA*eT*eG) [compound 435740]”, with 0%.
As for “435715 (antisense e[5mC]*eA*dG*d[5mC]*d[5mC]*dA*d[5mC]*dT*d[5mC]*dG*dA*dT*eG*eT) [compound 435715]”, the figure is 35%; as for “435666 (antisense eG*eG*dT*dT*dT*dG*d[5mC]*dT*dG*dG*d[5mC]*dA*eT*eT) [compound 435666]”, 71%; as for “435831 (antisense eG*eA*dT*d[5mC]*dT*dT*d[5mC]*dA*d[5mC]*dA*dT*dA*eG*e[5mC]) [compound 435831]”, 51%.
Then “435496 (antisense eG*eG*dA*dG*dA*d[5mC]*d[5mC]*d[5mC]*dT*dG*dG*dT*eG*eT) [compound 435496]”, with 47%; and “435691 (antisense e[5mC]*eA*dG*d[5mC]*d[5mC]*dG*d[5mC]*dT*dG*dA*d[5mC]*d[5mC]*eA*eA) [compound 435691]”, with 25%.
Consider “435813 (antisense eG*eG*dA*dT*dG*d[5mC]*dA*d[5mC]*dA*d[5mC]*d[5mC]*dA*eG*eG) [compound 435813]”, for which the “% inhibition of human Factor 7 mRNA” value was determined as 55%.
Then “435749 (antisense e[5mC]*eA*dG*d[5mC]*d[5mC]*dA*dG*dG*dG*d[5mC]*d[5mC]*dT*eG*eG) [compound 435749]”, with 29%; and “435722 (antisense eT*eG*dG*dG*d[5mC]*dT*dT*dG*dG*d[5mC]*dT*dG*eA*eA) [compound 435722]”, with 50%; and “435649 (antisense eA*eG*dG*d[5mC]*dA*dG*dA*dA*dG*d[5mC]*dA*dG*eA*eT) [compound 435649]”, with 21%.
As for “435479 (antisense e[5mC]*eA*d[5mC]*dT*d[5mC]*d[5mC]*d[5mC]*d[5mC]*dT*dT*dT*dG*eG*eG) [compound 435479]”, the figure is 9%; as for “435720 (antisense eA*eG*dG*d[5mC]*dT*d[5mC]*dA*dG*d[5mC]*dT*dG*dG*eG*e[5mC]) [compound 435720]”, 16%.
Then “435781 (antisense eA*e[5mC]*d[5mC]*dA*d[5mC]*dG*d[5mC]*dG*dG*dT*dG*dG*eT*eG) [compound 435781]”, with 0%; and “435761 (antisense e[5mC]*eA*dG*dA*dT*dG*dA*dA*dA*dA*d[5mC]*dT*eT*eG) [compound 435761]”, with 5%.
For “435660 (antisense e[5mC]*e[5mC]*dG*dT*d[5mC]*dT*dG*d[5mC]*d[5mC]*dA*dG*d[5mC]*eA*eG) [compound 435660]”, the “% inhibition of human Factor 7 mRNA” value is on record as 58%.
As for “435837 (antisense e[5mC]*eT*d[5mC]*dG*d[5mC]*d[5mC]*dT*dG*dG*dA*dA*dG*eG*eA) [compound 435837]”, the figure is 37%; as for “435698 (antisense e[5mC]*e[5mC]*dT*dT*dG*d[5mC]*dA*dG*dG*dA*dG*dT*e[5mC]*e[5mC]) [compound 435698]”, 61%.
Then “435494 (antisense eA*eG*dA*d[5mC]*d[5mC]*d[5mC]*dT*dG*dG*dT*dG*dT*eA*e[5mC]) [compound 435494]”, with 47%; and “435751 (antisense e[5mC]*eT*dT*dG*d[5mC]*d[5mC]*dA*dG*dG*dT*d[5mC]*d[5mC]*eT*e[5mC]) [compound 435751]”, with 28%; and “435760 (antisense eT*e[5mC]*dT*dT*dG*dG*dG*dT*dG*dT*dG*dG*eA*eT) [compound 435760]”, with 17%.
Then “435841 (antisense e[5mC]*eT*d[5mC]*dG*dG*dA*d[5mC]*dA*dA*dA*dA*dG*eA*eG) [compound 435841]”, with 1%.
Turning to “435641 (antisense eG*eG*dT*d[5mC]*d[5mC]*d[5mC]*d[5mC]*dA*dT*d[5mC]*dA*d[5mC]*eT*eG) [compound 435641]”, the “% inhibition of human Factor 7 mRNA” value is recorded as 51%.
On to “435779 (antisense eT*eG*dA*dG*d[5mC]*dG*d[5mC]*dG*dG*dA*dA*dG*eA*eA) [compound 435779]”, for which the “% inhibition of human Factor 7 mRNA” value was 50%.
As for “435849 (antisense eT*eG*d[5mC]*d[5mC]*dG*dT*dA*dG*dT*dG*dG*d[5mC]*e[5mC]*eG) [compound 435849]”, the figure is 31%.

These data come from patent US20120214862A1, “MODULATION OF FACTOR 7 EXPRESSION” (ISIS Pharmaceuticals, Inc., priority 2009, published 2012).
